Source: patent US20070015183A1, “Biomarkers for huntington's disease” (The General Hospital Corporation, priority 2005, published 2007)

Key:
[1] = test system: transgenic mouse models of HD; conditions: Gardian et al., J. Biol. Chem. 280: 556-563, 2005; cited from earlier work
[2] = test system: Huntington's disease symptoms; conditions: HD patients, dose-finding study not powered to detect alterations in symptoms or progression
Text: (§1) Peripheral blood samples were collected from 62 HD subjects and 53 age- and gender-matched healthy controls. The HD group included a cohort of 9 early asymptomatic carriers of the gene mutation, as determined by genetic testing, consisting of 5 females and 4 males with the average age of 22.5±2.6 years. An additional group of 21 late presymptomatic carriers of the HD mutation was also included in the study. Of these, 11 were females and 10 were males with the average age of 39±6.1. An additional 32 patients were symptomatic, 17 females and 15 males, with the average age of 49.6±5.9. The determination of the neurological status of the HD patients utilized the Huntington's Disease Rating Scale (UHDRS) performed by an experienced HD neurologist. All of the symptomatic patients were in Stage I or II of disease, as determined by the total functional capacity scores (TFC 7-12). All samples were obtained in accordance with the Institutional Review Boards and participants gave written informed consent. Blood samples were also obtained from 12 symptomatic patients (7 males and 5 females) participating in a dose-finding study of the HDAC inhibitor, sodium phenylbutyrate (SPB 11, Scandinavian Designs, Sellersville, Pa.) at Oregon Health and Science University. The dosage of sodium phenylbutyrate in these subjects ranged from 12 to 18 grams per day administered in 3 doses.

[3] = HD patients, as a result of phenylbutyrate treatments
Text: as §1

[4] = test system: 12-gene marker set (ANXA1, AXOT, CAPZA1, HIF1A, JJAZ1, P2Y5, PCNP, ROCK1, SF3B1, SP3, TAF7, YIPPEE) mRNA in blood; conditions: 12 HD patients, after 4 weeks of treatment, QRT-PCR, P<0.05
Text: as §1

total and differential cell blood counts [3]: no consistent differences
SMILES: O=C([O-])CCCc1ccccc1.[Na+] [phenylbutyrate, sodium phenylbutyrate]
neuroprotective effects [1]: significant neuroprotective effects
symptomatic effects [2]: no significant symptomatic effects
expression of each individual gene of the marker set in blood after treatment compared to untreated samples [4]: 8 out of 12 genes were significantly decreased and statistically significant decrease in expression of 8 out of 12 genes
